The values below come from patent US20230183712A1, “METHODS FOR E[…] ACID AMMONIA LYASE ENZYMES AND ENZYMES THEREBY OBTAINED” (priority 2020, published 2023).

Assay [1] addresses T1, Anabaena variabilis phenylalanine ammonia-lyase (DM-rAvPAL/AvPAL*; C503S and C565S, SEQ ID NO:2) variant M222L (Trichormus variabilis, UniProt Q3M5Z3, C503S/C565S/M222L).
T1 construct: His-tag (N); made in house; host or cells: E. coli MG1655 rph+
Nature of the assay: Enzyme kinetics: production of tCA from phe (Michaelis-Menten), mutant M222L. The format is biochemical. As to conditions: PBS pH 7.4, 37° C. As to the method: (§1) Enzyme activity assays. The activity of all AvPAL constructs was measured by production of tCA over time. Cultures were sonicated on ice using a Sonifier SFX 150 (Branson Ultrasonics, Danbury, Conn.) (2 s on; 10 s off; 4 min; 55%), and debris was separated from the lysate by centrifuging at 10,000×g for 10 min. Ten microliters of lysate were then mixed with 190 μL of pre-warmed 50 mM phe (Tokyo Chemical Industry, Portland, Oreg.) in phosphate buffered saline (PBS) (137 mM NaCl, 2.7 mM KCl, 10 mM Na2HPO4, 2 mM KH2PO4, pH 7.4) in a 96-well F-bottom UVStar (Greiner Bio-One, Kremsmünster, Austria) microtiter plate. Absorbance at 290 nm was measured every 30 s at 37° C. using a SpectraMax M3 (Molecular Devices) plate reader.
(§2) Each construct included a N-term His-tag used for immobilized metal affinity chromatography (IMAC) purification. Briefly, overnight cell cultures were sonicated in 3 mL Equilibration buffer (300 mM NaCl, 50 mM NaH2PO4, 10 mM imidazole, 15% (w/v) glycerol, pH 8.0). The lysate was loaded onto a prepared column with 2 mL TALON Metal Affinity Resin (Clontech Laboratories, Inc., Mountain View, Calif.). […] Protein concentration was measured by Bradford method using bovine serum albumin (BSA) as the standard.
(§3) Enzyme kinetics. […] The activity of 0.1 μg of protein was measured by the production of tCA over 10 min by recording the absorbance of the reaction mix at 290 nm. […]

In assay [2] the target is T2, Anabaena variabilis phenylalanine ammonia-lyase (DM-rAvPAL/AvPAL*; C503S and C565S, SEQ ID NO:2) variant L4P/G218S (Trichormus variabilis, UniProt Q3M5Z3, C503S/C565S/G218S/L4P).
T2 construct: His-tag (N); made in house; host or cells: E. coli MG1655 rph+
Nature of the assay: Enzyme kinetics: production of tCA from phe (Michaelis-Menten), mutant L4P/G218S. The class given is biochemical. The conditions noted are these: relative to parental AvPAL*; phe 35 μM to 17.5 mM, PBS pH 7.4, 37° C.; FIG. 4a. How it is done:
as §1, §2, §3

Another assay concerns E. coli. Nature of the assay: Growth of E. coli in media supplemented with tCA. The conditions noted are these: MM^full,opt, 1.5 mM tCA. The format is cell-based, Escherichia coli. How it is done: Microbial strains, plasmids, and growth conditions. All Escherichia coli strains were cultured in lysogeny broth (LB) (VWR International, Randor, Pa.) at 37° C. with rotary shaking at 250 rpm. All media was solidified using 1.5% (w/v) agar (Teknova Inc, Hollister, Calif.). Minimal media (MM) conditions are described in the “Optimization of growth-coupled enrichment” section below. E. coli DH5a was used as a host for the construction of the expression vectors and cultured as above only supplemented with chloramphenicol (25 μg/mL) (RPI Corp). Initial expression in MM was performed in E. coli MG1655(DE3)^ΔendA,ΔrecA and later moved to E. coli MG1655^rph+ for final experiments.
Optimization of growth-coupled enrichment. Growth was measured by seeding cultures at OD600 0.05 and monitoring cell density over time. Initial experiments used a base nitrogen-deficient minimal media (MM^N-) (33.7 mM Na2HPO4, 22 mM KH2PO4, 8.55 mM NaCl, 1 mM MgSO4, 0.1 mM CaCl2), 10 μM FeSO4, 0.4% (v/v) glycerol, 10 μg/mL thiamine, 20 μM IPTG, 12.5 μg/mL chloramphenicol, pH 7.4) that was supplemented with 9.35 mM phe (MM^phe,init) or 9.35 mM NH4Cl) Variable conditions were changed across the parameters outlined in FIG. 2, as well as moving to a more favorable strain for growth in minimal media. […]

Each structure is given as a SMILES string.

T1 sequence (Q3M5Z3 whole entry M222L/C503S/C565S, looked up): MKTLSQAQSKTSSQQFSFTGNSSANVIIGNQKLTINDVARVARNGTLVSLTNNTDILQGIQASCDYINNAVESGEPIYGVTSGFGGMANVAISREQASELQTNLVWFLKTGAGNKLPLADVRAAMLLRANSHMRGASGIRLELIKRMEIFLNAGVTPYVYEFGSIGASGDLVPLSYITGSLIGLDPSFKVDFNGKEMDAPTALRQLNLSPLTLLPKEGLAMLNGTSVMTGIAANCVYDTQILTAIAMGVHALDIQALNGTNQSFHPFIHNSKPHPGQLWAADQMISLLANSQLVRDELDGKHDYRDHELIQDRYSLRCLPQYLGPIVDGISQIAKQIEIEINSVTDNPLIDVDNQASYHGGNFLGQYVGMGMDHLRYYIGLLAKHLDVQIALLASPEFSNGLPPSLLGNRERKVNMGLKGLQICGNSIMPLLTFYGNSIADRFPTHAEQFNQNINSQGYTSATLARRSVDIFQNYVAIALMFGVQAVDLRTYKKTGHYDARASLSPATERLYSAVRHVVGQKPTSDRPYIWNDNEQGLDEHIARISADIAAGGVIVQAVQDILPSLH
T2 sequence (Q3M5Z3 whole entry L4P/G218S/C503S/C565S, looked up): as the sequence (Q3M5Z3 whole entry M222L/C503S/C565S, looked up) above, with L4P, G218S, L222M counted along it

In the case of `N[C@@H](Cc1ccccc1)C(=O)O` [phe, phenylalanine], the “catalytic efficiency (relative to AvPAL*)” value in assay [1] (compared to AvPAL*) is on record as “improved catalytic efficiency”. Further, the “kcat (increase over parental AvPAL*)” value in assay [1] (relative to parental AvPAL*, phe 35 μM to 17.5 mM, FIG. 4a) is recorded as 70-80%. Further, in assay [2], the “KM (fold higher than parent)” value is about 2.5 × and the “kcat (increase over parental AvPAL*)” value is listed as 70-80%.

In the case of `O=C(O)/C=C/c1ccccc1` [tCA, trans-cinnamic acid], in the assay on E. coli, the “growth of cells supplemented with tCA” value was “impaired growth”.
